Measured values taken from the supplement of paper PMC10307832.

Legend:
Test in all cases: relative viability (nuclei count vs DMSO), 5 days (fraction); higher = more cells survive
H3255 = system: H3255
Procedure, shortened: (§1)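 After 5 days of treatment, lung cancer cells in 1536-well plates were fixed and stained in a single step (final 0.05% Triton X-100, 1% formaldehyde, 1 ug/ml Hoechst) and their nuclei counted on 4× images. Treatment had been applied by pin tool the day after seeding as one drug alone or as a fixed anchor-drug dose with five library-drug doses (not always all listed) in √10 steps. Relative viability is the nuclei count of treated wells divided by that of vehicle wells, and values are medians of duplicate plates.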

NCI-H1792 = system: NCI-H1792
Procedure, shortened: as §1

SW 900 = system: SW 900
Procedure, shortened: as §1

NCI-H520 = system: NCI-H520
Procedure, shortened: as §1

NCI-H522 = system: NCI-H522
Procedure, shortened: as §1

NCI-H1793 = system: NCI-H1793
Procedure, shortened: as §1

LXF-289 = system: LXF-289
Procedure, shortened: as §1

NCI-H1944 = system: NCI-H1944
Procedure, shortened: as §1

NCI-H1975 = system: NCI-H1975
Procedure, shortened: as §1

NCI-H2023 = system: NCI-H2023
Procedure, shortened: as §1

HCC-827 = system: HCC-827
Procedure, shortened: as §1

NCI-H2170 = system: NCI-H2170
Procedure, shortened: as §1

NCI-H1993 = system: NCI-H1993
Procedure, shortened: as §1

NCI-H2087 = system: NCI-H2087
Procedure, shortened: as §1

A-427 = system: A-427
Procedure, shortened: as §1

LCLC-103H = system: LCLC-103H
Procedure, shortened: as §1

COR-L 105 = system: COR-L 105
Procedure, shortened: as §1

HCC-44 = system: HCC-44
Procedure, shortened: as §1

LOU-NH91 = system: LOU-NH91
Procedure, shortened: as §1

NCI-H358 = system: NCI-H358
Procedure, shortened: as §1

NCI-H1915 = system: NCI-H1915
Procedure, shortened: as §1

SK-MES-1 = system: SK-MES-1
Procedure, shortened: as §1

SW 1573 = system: SW 1573
Procedure, shortened: as §1

CCNC(=O)c1noc(-c2cc(C(C)C)c(O)cc2O)c1-c1ccc(CN2CCOCC2)cc1 [Luminespib] + CC(=O)Nc1cccc(-n2c(=O)n(C3CC3)c(=O)c3c(Nc4ccc(I)cc4F)n(C)c(=O)c(C)c32)c1 [Trametinib] (partner 0.02 µM)
relative viability (H3255; first compound 0.002 µM): 0.549 | relative viability (H3255; first compound 0.02 µM): 0.405 | relative viability (H3255; first compound 0.06325 µM): 0.386 | relative viability (H3255; first compound 0.2 µM): 0.278 | relative viability (NCI-H1792; first compound 0.002 µM): 0.407 | relative viability (NCI-H1792; first compound 0.006325 µM): 0.391 | relative viability (NCI-H1792; first compound 0.02 µM): 0.317 | relative viability (NCI-H1792; first compound 0.06325 µM): 0.0621 | relative viability (NCI-H1792; first compound 0.2 µM): 0.0632 | relative viability (SW 900; first compound 0.002 µM): 0.837 | relative viability (SW 900; first compound 0.006325 µM): 0.919 | relative viability (SW 900; first compound 0.02 µM): 0.659 | relative viability (SW 900; first compound 0.06325 µM): 0.165 | relative viability (SW 900; first compound 0.2 µM): 0.131 | relative viability (NCI-H520; first compound 0.002 µM): 0.795 | relative viability (NCI-H520; first compound 0.006325 µM): 0.606 | relative viability (NCI-H520; first compound 0.02 µM): 0.371 | relative viability (NCI-H520; first compound 0.06325 µM): 0.114 | relative viability (NCI-H520; first compound 0.2 µM): 0.138 | relative viability (NCI-H522; first compound 0.002 µM): 0.721 | relative viability (NCI-H522; first compound 0.006325 µM): 0.716 | relative viability (NCI-H522; first compound 0.02 µM): 0.693 | relative viability (NCI-H522; first compound 0.06325 µM): 0.635 | relative viability (NCI-H522; first compound 0.2 µM): 0.501 | relative viability (NCI-H1793; first compound 0.002 µM): 0.428 | relative viability (NCI-H1793; first compound 0.006325 µM): 0.333 | relative viability (NCI-H1793; first compound 0.02 µM): 0.357 | relative viability (NCI-H1793; first compound 0.06325 µM): 0.187 | relative viability (NCI-H1793; first compound 0.2 µM): 0.186 | relative viability (LXF-289; first compound 0.002 µM): 0.691 | relative viability (LXF-289; first compound 0.006325 µM): 0.649 | relative viability (LXF-289; first compound 0.02 µM): 0.669 | relative viability (LXF-289; first compound 0.06325 µM): 0.622 | relative viability (LXF-289; first compound 0.2 µM): 0.624 | relative viability (NCI-H1944; first compound 0.002 µM): 0.467 | relative viability (NCI-H1944; first compound 0.006325 µM): 0.4 | relative viability (NCI-H1944; first compound 0.02 µM): 0.387 | relative viability (NCI-H1944; first compound 0.06325 µM): 0.405 | relative viability (NCI-H1944; first compound 0.2 µM): 0.354 | relative viability (NCI-H1975; first compound 0.002 µM): 0.349 | relative viability (NCI-H1975; first compound 0.006325 µM): 0.334 | relative viability (NCI-H1975; first compound 0.02 µM): 0.168 | relative viability (NCI-H1975; first compound 0.06325 µM): 0.107 | relative viability (NCI-H1975; first compound 0.2 µM): 0.118 | relative viability (NCI-H2023; first compound 0.002 µM): 0.49 | relative viability (NCI-H2023; first compound 0.006325 µM): 0.56 | relative viability (NCI-H2023; first compound 0.02 µM): 0.39 | relative viability (NCI-H2023; first compound 0.06325 µM): 0.0742 | relative viability (NCI-H2023; first compound 0.2 µM): 0.0679 | relative viability (HCC-827; first compound 0.002 µM): 0.533 | relative viability (HCC-827; first compound 0.006325 µM): 0.506 | relative viability (HCC-827; first compound 0.02 µM): 0.279 | relative viability (HCC-827; first compound 0.06325 µM): 0.154 | relative viability (HCC-827; first compound 0.2 µM): 0.15 | relative viability (NCI-H2170; first compound 0.002 µM): 0.915 | relative viability (NCI-H2170; first compound 0.006325 µM): 0.932 | relative viability (NCI-H2170; first compound 0.06325 µM): 0.896 | relative viability (NCI-H2170; first compound 0.2 µM): 0.841 | relative viability (NCI-H1993; first compound 0.002 µM): 0.562 | relative viability (NCI-H1993; first compound 0.006325 µM): 0.424 | relative viability (NCI-H1993; first compound 0.02 µM): 0.488 | relative viability (NCI-H1993; first compound 0.06325 µM): 0.461 | relative viability (NCI-H1993; first compound 0.2 µM): 0.474 | relative viability (NCI-H2087; first compound 0.002 µM): 0.197 | relative viability (NCI-H2087; first compound 0.006325 µM): 0.218 | relative viability (NCI-H2087; first compound 0.02 µM): 0.205 | relative viability (NCI-H2087; first compound 0.06325 µM): 0.146 | relative viability (NCI-H2087; first compound 0.2 µM): 0.11 | relative viability (A-427; first compound 0.002 µM): 0.771 | relative viability (A-427; first compound 0.006325 µM): 0.74 | relative viability (A-427; first compound 0.02 µM): 0.632 | relative viability (A-427; first compound 0.06325 µM): 0.607 | relative viability (A-427; first compound 0.2 µM): 0.281 | relative viability (LCLC-103H; first compound 0.002 µM): 0.625 | relative viability (LCLC-103H; first compound 0.006325 µM): 0.657 | relative viability (LCLC-103H; first compound 0.02 µM): 0.699 | relative viability (LCLC-103H; first compound 0.06325 µM): 0.693 | relative viability (LCLC-103H; first compound 0.2 µM): 0.689 | relative viability (COR-L 105; first compound 0.002 µM): 0.46 | relative viability (COR-L 105; first compound 0.006325 µM): 0.43 | relative viability (COR-L 105; first compound 0.02 µM): 0.384 | relative viability (COR-L 105; first compound 0.06325 µM): 0.265 | relative viability (COR-L 105; first compound 0.2 µM): 0.278 | relative viability (HCC-44; first compound 0.002 µM): 0.979 | relative viability (HCC-44; first compound 0.006325 µM): 1.19 | relative viability (HCC-44; first compound 0.02 µM): 1.24 | relative viability (HCC-44; first compound 0.06325 µM): 0.982 | relative viability (HCC-44; first compound 0.2 µM): 0.775 | relative viability (LOU-NH91; first compound 0.002 µM): 0.807 | relative viability (LOU-NH91; first compound 0.006325 µM): 0.775 | relative viability (LOU-NH91; first compound 0.02 µM): 0.6 | relative viability (LOU-NH91; first compound 0.06325 µM): 0.417 | relative viability (LOU-NH91; first compound 0.2 µM): 0.385 | relative viability (NCI-H358; first compound 0.002 µM): 0.142 | relative viability (NCI-H358; first compound 0.006325 µM): 0.133 | relative viability (NCI-H358; first compound 0.02 µM): 0.0934 | relative viability (NCI-H358; first compound 0.06325 µM): 0.0702 | relative viability (NCI-H358; first compound 0.2 µM): 0.0715 | relative viability (NCI-H1915; first compound 0.002 µM): 0.316 | relative viability (NCI-H1915; first compound 0.006325 µM): 0.287 | relative viability (NCI-H1915; first compound 0.02 µM): 0.244 | relative viability (NCI-H1915; first compound 0.06325 µM): 0.254 | relative viability (NCI-H1915; first compound 0.2 µM): 0.161 | relative viability (SK-MES-1; first compound 0.002 µM): 0.551 | relative viability (SK-MES-1; first compound 0.006325 µM): 0.469 | relative viability (SK-MES-1; first compound 0.02 µM): 0.576 | relative viability (SK-MES-1; first compound 0.06325 µM): 0.177 | relative viability (SK-MES-1; first compound 0.2 µM): 0.166 | relative viability (SW 1573; first compound 0.002 µM): 0.604 | relative viability (SW 1573; first compound 0.006325 µM): 0.483 | relative viability (SW 1573; first compound 0.02 µM): 0.198 | relative viability (SW 1573; first compound 0.06325 µM): 0.105 | relative viability (SW 1573; first compound 0.2 µM): 0.096
